Reference: article PMC3312789 (Journal of Immunology (Baltimore, Md. : 1950), 2008)
Where no end group is shown, it is not given here.

Legend:
Assay in all cases: In vitro HLA-DR peptide binding assay
HLA DRB1*0101 = HLA DRB1*0101 (Homo sapiens, UniProt P01903+P01911, A100R/D57E/F55L/F60I/F76Y/I96L/L162R/M171V/P40L/Q125E/R42F/V115G/Y59C)
HLA DRB1*0301 = HLA DRB1*0301 (Homo sapiens, UniProt P01903+P01911, A100K/A102G/A103R/A169T/F55Y/I96L/K41T/L162R/M171V/P40S/Q125H/Q178H/Q39Y/R42S/S66N/T106N/T262R/W38E/Y61H)
Chain of HLA DRB1*0301 (P01903 26-254 limits assumed, other chains not shown): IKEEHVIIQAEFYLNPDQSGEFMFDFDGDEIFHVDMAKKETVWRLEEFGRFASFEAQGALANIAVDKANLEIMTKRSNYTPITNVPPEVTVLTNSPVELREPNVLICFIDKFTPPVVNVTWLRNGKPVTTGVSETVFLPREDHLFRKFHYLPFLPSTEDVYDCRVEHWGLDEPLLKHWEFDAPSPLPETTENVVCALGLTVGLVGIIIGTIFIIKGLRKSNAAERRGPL

HLA DRB1*0401 = HLA DRB1*0401 (Homo sapiens, UniProt P01903+P01911, A100K/A169T/F76Y/I96L/K127E/L162R/M171V/N62H/P40V/Q125Y/R42H/S133A/S149N/S66Y/V115G/V209L/W38E)
HLA DRB1*0404 = HLA DRB1*0404 (Homo sapiens, UniProt P01903+P01911, A100R/A169T/F76Y/I96L/K127E/L162R/M171V/N62H/P40V/Q125Y/R42H/S133A/S149N/S66Y/V209L/W38E)
HLA DRB1*0405 = HLA DRB1*0405 (Homo sapiens, UniProt P01903+P01911, A100R/A169T/D86S/F76Y/I96L/K127E/L162R/M171V/N62H/P40V/Q125Y/R42H/S133A/S149N/S66Y/V115G/V209L/W38E)
HLA DRB1*0701 = HLA DRB1*0701 (Homo sapiens, UniProt P01903+P01911, A100R/A102G/A103Q/D57E/D86V/E43K/F76Y/K127E/L162R/M171V/P40G/Q125H/Q99D/R33Q/R42Y/R54Q/S133A/S66F/T210M/V115G/Y107V/Y59L/Y89S)
HLA DRB1*1101 = HLA DRB1*1101 (Homo sapiens, UniProt P01903+P01911, A100R/A169T/A87E/I96F/K41T/L162R/M171V/P40S/Q125H/Q178H/Q39Y/Q99D/R42S/S66Y/T262R/V115G/W38E)
Chain of HLA DRB1*1101 (P01903 26-254 limits assumed, other chains not shown): as above

HLA DRB1*1302 = HLA DRB1*1302 (Homo sapiens, UniProt P01903+P01911, A100E/A169T/K41T/L162R/M171V/P40S/Q125H/Q178H/Q39Y/Q99D/R42S/S66N/T262R/V115G/W38E/Y61H)
Chain of HLA DRB1*1302 (P01903 26-254 limits assumed, other chains not shown): as above

HLA DRB1*1501 = HLA DRB1*1501 (Homo sapiens, UniProt P01903+P01911)
HLA DRB3*0101 = HLA DRB3*0101 (Homo sapiens, UniProt P01903+P79483)

Molecule | IC50 (HLA DRB1*0101) | IC50 (HLA DRB1*0301) | IC50 (HLA DRB1*0401) | IC50 (HLA DRB1*0404) | IC50 (HLA DRB1*0405) | IC50 (HLA DRB1*0701) | IC50 (HLA DRB1*1101) | IC50 (HLA DRB1*1302) | IC50 (HLA DRB1*1501) | IC50 (HLA DRB3*0101)
HAPAAPANPGLI [34.1] | 3.55 µM | > 5 µM | > 5 µM | > 5 µM | > 5 µM | > 5 µM | > 5 µM | > 5 µM | > 5 µM | > 5 µM
YQQGVTVDSIGM [24.3] | > 5 µM | > 5 µM | 4.41 µM | > 5 µM | > 5 µM | 0.389 µM | > 5 µM | > 5 µM | > 5 µM | > 5 µM
CC(C)C[C@H](NC(=O)[C@H](C)NC(=O)[C@H](CO)NC(=O)[C@H](CC(=O)O)NC(=O)[C@H](CCC(=O)O)NC(=O)[C@@H]1CCCN1)C(=O)N[C@@H](CC(C)C)C(=O)N[C@@H](CCC(=O)O)C(=O)N[C@@H](CC(=O)O)C(=O)N1CCC[C@H]1C(=O)N[C@@H](C)C(=O)NCC(=O)O [30.8] | > 5 µM | > 5 µM | > 5 µM | > 5 µM | > 5 µM | > 5 µM | > 5 µM | > 5 µM | > 5 µM | 2.05 µM
AYQQGVTVDSIG [24.2] | 0.471 µM | > 5 µM | 0.212 µM | > 5 µM | > 5 µM | 2.72 µM | > 5 µM | > 5 µM | > 5 µM | > 5 µM
DPEDSALLEDPA [30.7] | > 5 µM | > 5 µM | > 5 µM | > 5 µM | > 5 µM | > 5 µM | > 5 µM | > 5 µM | > 5 µM | 1.62 µM
APAAPANPGLII [34.2] | 1.27 µM | > 5 µM | > 5 µM | > 5 µM | > 5 µM | > 5 µM | > 5 µM | 0.642 µM | > 5 µM | > 5 µM
